# According to patent US10759783B2, “Biaryl inhibitors of Bruton'S tyrosine kinase” (BIOGEN MA INC., priority 2013, dated 2020):
# Where two headings read alike, the source gives them in different places.
# Tests used:
# BTK enzyme = biological target: T1, BTK enzyme (Homo sapiens, UniProt Q06187); test: In vitro BTK kinase assay: BTK-POLYGAT-LS assay; type: biochemical; settings: ATP 10 μM, read-out: IC50 (10uMATP)
# T1 construct: purchased Upstate 14-552
# In short: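 Human BTK activity was measured with final 10 μM ATP and 100 nM polyGAT substrate in pH 7.5 Tris buffer with 10 mM MgCl2, DTT, Triton X-100 and casein.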
# [1] = biological target: BTK (phospho-BTK) in human whole blood (Homo sapiens, UniProt Q06187); test: In vitro PD assay in human whole blood (pBTK assay)
# Chain of BTK (phospho-BTK) in human whole blood (Q06187 whole entry): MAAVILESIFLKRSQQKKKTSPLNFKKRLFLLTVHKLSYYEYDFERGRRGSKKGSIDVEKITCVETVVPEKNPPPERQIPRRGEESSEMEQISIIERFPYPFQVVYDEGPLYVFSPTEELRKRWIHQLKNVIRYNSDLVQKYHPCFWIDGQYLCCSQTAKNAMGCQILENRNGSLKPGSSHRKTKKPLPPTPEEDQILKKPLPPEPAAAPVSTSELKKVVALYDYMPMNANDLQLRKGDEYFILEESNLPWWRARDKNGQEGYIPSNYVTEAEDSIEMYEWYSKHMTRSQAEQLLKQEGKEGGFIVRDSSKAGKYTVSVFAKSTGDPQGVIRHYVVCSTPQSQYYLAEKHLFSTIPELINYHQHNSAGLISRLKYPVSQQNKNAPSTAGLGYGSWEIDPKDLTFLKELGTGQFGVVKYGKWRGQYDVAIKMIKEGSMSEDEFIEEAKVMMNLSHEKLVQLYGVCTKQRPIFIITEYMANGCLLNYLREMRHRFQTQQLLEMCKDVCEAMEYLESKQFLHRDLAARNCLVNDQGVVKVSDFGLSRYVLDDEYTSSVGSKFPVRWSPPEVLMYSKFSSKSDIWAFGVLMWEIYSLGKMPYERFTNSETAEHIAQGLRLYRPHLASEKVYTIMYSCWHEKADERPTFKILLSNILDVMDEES
# T1 sequence (Q06187 whole entry): as above
smiles,measurement,setting,value
"COCCn1cc(Nc2nccc(-c3ccc(CNC(=O)N4CCC(C(C)(C)C)C4)c(C)c3)n2)cn1 (stereo not drawn) [Example I-303, 3-tert-butyl-N-[[4-[2-[[1-(2-methoxyethyl)pyrazol-4-yl]amino]pyrimidin-4-yl]-2-methyl-phenyl]methyl]pyrrolidine-1-carboxamide]",IC50,BTK enzyme,< 10 nM
same,IC50,[1],< 500 nM
"COCCn1cc(Nc2nccc(-c3ccc(CNC(=O)N4CC(OC(C)(C)C)C4)c(C)c3)n2)cn1 [Example I-304, 3-tert-butoxy-N-[[4-[2-[[1-(2-methoxyethyl)pyrazol-4-yl)amino]pyrimidin-4-yl]-2-methyl-phenyl]methyl]azetidine-1-carboxamide]",IC50,BTK enzyme,< 10 nM
same,IC50,[1],< 500 nM
"CCn1cc(Nc2nccc(-c3ccc(CNC(=O)N4CCC(C(C)(C)C)C4)c(C)c3)n2)cn1 (stereo not drawn) [Example I-305, 3-tert-butyl-N-[[4-[2-[(1-ethylpyrazol-4-yl)amino]pyrimidin-4-yl]-2-methyl-phenyl]methyl]pyrrolidine-1-carboxamide]",IC50,BTK enzyme,< 10 nM
same,IC50,[1],< 500 nM
"Cc1cc(-c2ccnc(Nc3cnn(C(C)C)c3)n2)ccc1CNC(=O)N1CC(OC(C)(C)C)C1 [Example I-306, 3-tert-butoxy-N-[[4-[2-[(1-isopropylpyrazol-4-yl)amino]pyrimidin-4-yl]-2-methyl-phenyl]methyl]azetidine-1-carboxamide]",IC50,BTK enzyme,< 10 nM
same,IC50,"[1]; read-out: pBTK IC50, human whole blood, 37° C. for 30 min",< 500 nM
"Cc1cc(-c2ccnc(Nc3cnn(C)c3)n2)ccc1CNC(=O)N1CC(OCCF)C1 [Example I-307, 3-(2-fluoroethoxy)-N-[[2-methyl-4-[2-[(1-methylpyrazol-4-yl)amino]pyrimidin-4-yl]phenyl]methyl]azetidine-1-carboxamide]",IC50,BTK enzyme,< 10 nM
same,IC50,[1],< 500 nM
"Cc1cc(-c2ccnc(Nc3cnn(C4CC4)c3)n2)ccc1CNC(=O)N1CCC(C(C)(C)C)C1 (stereo not drawn) [Example I-308, 3-tert-butyl-N-[[4-[2-[(1-cyclopropylpyrazol-4-yl)amino]pyrimidin-4-yl]-2-methyl-phenyl]methyl]pyrrolidine-1-carboxamide]",IC50,BTK enzyme,< 10 nM
same,IC50,[1],< 500 nM
"Cc1cc(-c2cc(Nc3cc4n(n3)CCN(C)C4)ncn2)ccc1CN1CCc2c(cnn2C(C)(C)C)C1=O [Example I-309, 1-tert-butyl-5-[[2-methyl-4-[6-[(5-methyl-6,7-dihydro-4H-pyrazolo[1,5-a]pyrazin-2-yl)amino]pyrimidin-4-yl]phenyl]methyl]-6,7-dihydropyrazolo[4,3-c]pyridin-4-one]",IC50,BTK enzyme,< 10 nM
same,IC50,[1],< 500 nM
"CC(C)CN1CCN(Cc2ccc(-c3ccnc(Nc4cnn(CCO)c4)n3)cc2C(F)(F)F)C(=O)C1 [Example I-310, 1-[[4-[2-[[1-(2-hydroxyethyl)pyrazol-4-yl]amino]pyrimidin-4-yl]-2-(trifluoromethyl)phenyl]methyl]-4-isobutyl-piperazin-2-one]",IC50,BTK enzyme,< 10 nM
same,IC50,[1],< 500 nM
"CN1CC(n2cc(Nc3nccc(-c4ccc(CNC(=O)N5CCC(C(C)(C)C)C5)c(C(F)(F)F)c4)n3)cn2)C1 (stereo not drawn) [Example I-311, 3-tert-butyl-N-[[4-[2-[[1-(1-methylazetidin-3-yl)pyrazol-4-yl]amino]pyrimidin-4-yl]-2-(trifluoromethyl)phenyl]methyl]pyrrolidine-1-carboxamide]",IC50,BTK enzyme,< 10 nM
same,IC50,[1],< 500 nM
"Cc1cc(-c2ccnc(Nc3cnn(C(C)(C)C(=O)NCC(F)(F)F)c3)n2)ccc1CNC(=O)N1CC(OC(C)C)C1 [Example I-312, N-[[4-[2-[[1-[1,1-dimethyl-2-oxo-2-(2,2,2-trifluoroethylamino)ethyl]pyrazol-4-yl]amino]pyrimidin-4-yl]-2-methyl-phenyl]methyl]-3-isopropoxy-azetidine-1-carboxamide]",IC50,BTK enzyme,< 10 nM
same,IC50,[1],< 500 nM
"CC(C)OC1CN(C(=O)NCc2ccc(-c3ccnc(Nc4cnn([C@H]5CCOC5)c4)n3)cc2C(F)(F)F)C1 [Example I-313, 3-isopropoxy-N[[4-[2-[[1-[(3S)-tetrahydrofuran-3-yl]pyrazol-4-yl]amino]pyrimidin-4-yl]-2-(trifluoromethyl)phenyl]methyl]azetidine-1-carboxamide]",IC50,BTK enzyme,< 10 nM
same,IC50,[1],< 500 nM
"CC(C)OC1CN(C(=O)NCc2ccc(-c3ccnc(Nc4cnn([C@@H]5CCOC5)c4)n3)cc2C(F)(F)F)C1 [Example I-314, 3-isopropoxy-N-[[4-[2-[[1-[(3R)-tetrahydrofuran-3-yl]pyrazol-4-yl]amino]pyrimidin-4-yl]-2-(trifluoromethyl)phenyl]methyl]azetidine-1-carboxamide]",IC50,BTK enzyme,< 10 nM
same,IC50,[1],< 500 nM
"Cc1cc(-c2ccnc(Nc3cnn4c3CCC4)n2)ccc1CNC(=O)c1cnc(C(C)(C)C)s1 [Example I-315, 2-tert-butyl-N-[[4-[2-(5,6-dihydro-4H-pyrrolo[1,2-b]pyrazol-3-ylamino)pyrimidin-4-yl]-2-methyl-phenyl]methyl]thiazole-5-carboxamide]",IC50,BTK enzyme,< 10 nM
same,IC50,[1],< 500 nM
"CC(C)(C)C1CCN(C(=O)NCc2ccc(-c3ccnc(Nc4cnn([C@H]5CCNC5)c4)n3)cc2C(F)(F)F)C1 (stereo partly drawn) [Example I-316, 3-tert-butyl-N-[[4-[2-[[1-[(3S)-pyrrolidin-3-yl]pyrazol-4-yl]amino]pyrimidin-4-yl]-2-(trifluoromethyl)phenyl]methyl]pyrrolidine-1-carboxamide]",IC50,BTK enzyme,< 10 nM
same,IC50,[1],< 500 nM
"COCCn1cc(Nc2nccc(-c3ccc(CNC(=O)N4CCC(C(C)C)C4)c(C(F)(F)F)c3)n2)cn1 (stereo not drawn) [Example I-317, 3-isopropyl-N-[[4-[2-[[1-(2-methoxyethyl)pyrazol-4-yl]amino]pyrimidin-4-yl]-2-(trifluoromethyl)phenyl]methyl]pyrrolidine-1-carboxamide]",IC50,BTK enzyme,< 10 nM
same,IC50,[1],< 500 nM
"CC(C)(C)C1CCN(C(=O)NCc2ccc(-c3ccnc(Nc4cnn(C5CCNC5)c4)n3)cc2C(F)(F)F)C1 [Example I-318, 3-tert-butyl-N-[8 4-[2-[[1-[(3R)-pyrrolidin-3-yl]pyrazol-4-yl]amino]pyrimidin-4-yl]-2-(trifluoromethyl)phenyl]methyl]pyrrolidine-1-carboxamide]",IC50,BTK enzyme,< 10 nM
same,IC50,[1],< 500 nM
"COCCc1cc(-c2ccnc(Nc3cnn(C)c3)n2)ccc1CNC(=O)N1CC(OC(C)(C)C)C1 [Example I-319, 3-tert-butoxy-N-[[2-(2-methoxyethyl)-4-[2-[(1-methylpyrazol-4-yl)amino]pyrimidin-4-yl]phenyl]methyl]azetidine-1-carboxamide]",IC50,BTK enzyme,< 10 nM
same,IC50,[1],< 500 nM
"COCCc1cc(-c2ccnc(Nc3cnn(C)c3)n2)ccc1CNC(=O)N1CCC(C(C)(C)C)C1 (stereo not drawn) [Example I-320, 3-tert-butyl-N-[[2-(2-methoxyethyl)-4-[2-[(1-methylpyrazol-4-yl)amino]pyrimidin-4-yl]phenyl]methyl]pyrrolidine-1-carboxamide]",IC50,BTK enzyme,< 10 nM
same,IC50,[1],< 500 nM
"Cc1c(Nc2nccc(-c3ccc(CNC(=O)N4CCC(C(C)(C)C)C4)c(CCO)c3)n2)cnn1C (stereo not drawn) [Example I-321, 3-tert-butyl-N-[[4-[2-[(1,5-dimethylpyrazol-4-yl)amino]pyrimidin-4-yl]-2-(2-hydroxyethyl)phenyl]methyl]pyrrolidine-1-carboxamide]",IC50,BTK enzyme,< 10 nM
same,IC50,[1],< 500 nM
"Cc1cc(-c2ccnc(Nc3cnn4c3CCC4)n2)ccc1CNC(=O)N1CC(OC(C)(C)C)C1 [Example I-322, 3-tert-butoxy-N-[[4-[2-(5,6-dihydro-4H-pyrrolo[1,2-b]pyrazol-3-ylamino)pyrimidin-4-yl]-2-methyl-phenyl]methyl]azetidine-1-carboxamide]",IC50,BTK enzyme,< 10 nM
same,IC50,[1],< 500 nM
"COCCc1cc(-c2ccnc(Nc3cnn4c3CCC4)n2)ccc1CNC(=O)N1CC(OC(C)(C)C)C1 [Example I-323, 3-tert-butoxy-N-[[4-[2-(5,6-dihydro-4H-pyrrolo[1,2-b]pyrazol-3-ylamino)pyrimidin-4-yl]-2-(2-methoxyethyl)phenyl]methyl]azetidine-1-carboxamide]",IC50,BTK enzyme,< 10 nM
same,IC50,[1],< 500 nM
"CC(C)(C)C1CCN(C(=O)NCc2ccc(-c3ccnc(Nc4cnn5c4CCC5)n3)cc2CCO)C1 (stereo not drawn) [Example I-324, 3-tert-butyl-N-[[4-[2-(5,6-dihydro-4H-pyrrolo[1,2-b]pyrazol-3-ylamino)pyrimidin-4-yl]-2-(2-hydroxyethyl)phenyl]methyl]pyrrolidine-1-carboxamide]",IC50,BTK enzyme,< 10 nM
same,IC50,[1],< 500 nM
"COCCc1cc(-c2ccnc(Nc3cnn4c3CCC4)n2)ccc1CNC(=O)N1CC[C@@H](C(C)(C)C)C1 [Example I-325, (3S)-3-tert-butyl-N-[[4-[2-(5,6-dihydro-4H-pyrrolo[1,2-b]pyrazol-3-ylamino)pyrimidin-4-yl]-2-(2-methoxyethyl)phenyl]methyl]pyrrolidine-1-carboxamide]",IC50,BTK enzyme,< 10 nM
same,IC50,[1],< 500 nM
"CC(C)OC1CN(C(=O)NC2CCCc3cc(-c4ccnc(Nc5cnn(C6CCN(C)CC6)c5)n4)ccc32)C1 (stereo not drawn) [Example I-326, 3-isopropoxy-N-[6-[2-[[1-(1-methyl-4-piperidyl)pyrazol-4-yl]amino]pyrimidin-4-yl]tetralin-1-yl]azetidine-1-carboxamide]",IC50,BTK enzyme,< 10 nM
same,IC50,[1],< 500 nM
CC(C)(C)C1CCN(C(=O)NC2CCCc3cc(-c4ccnc(Nc5cnn(CCO)c5)n4)ccc32)C1 (stereo not drawn) [Example I-327],IC50,BTK enzyme,< 10 nM
same,IC50,[1],< 500 nM
CCn1cc(Nc2nccc(-c3ccc4c(c3)CCCCC4NC(=O)N3CCC(C(C)(C)C)C3)n2)cn1 (stereo not drawn) [Example I-328],IC50,BTK enzyme,< 10 nM
same,IC50,[1],< 500 nM
"CC(C)OC1CN(C(=O)NC2CCN(C=O)Cc3cc(-c4ccnc(Nc5cnn(C)c5)n4)ccc32)C1 (stereo not drawn) [Example I-329, N-[2-formyl-8-[2-[(1-methylpyrazol-4-yl)amino]pyrimidin-4-yl]-1,3,4,5-tetrahydro-2-benzazepin-5-yl]-3-isopropoxy-azetidine-1-carboxamide]",IC50,BTK enzyme,< 10 nM
same,IC50,[1],< 500 nM
